In US20230372481A1 (priority 2020, published 2023):
Values joined by “and” are separate entries in the source; they are usually repeats but may differ in a detail not shown here. Equal entries are not always repeated. Where two headings read alike, the source gives them in different places.

Tests used:
CD45RA− memory T cells [1] = experiment: Phenotypic characterization of CD45RA− memory T cells in the presence of IL-15 (Table 11); type: cell-based, human
CD45RA− memory T cells [2] = system: CD45RA− memory T cells;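 note: memory T cells from a convalescent donor cultured overnight or 72 h, surface markers read by flow cytometry, fold change versus a parallel culture lacking IL15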
Description: CD45RA− memory T cells from the convalescent donor where thawed and incubated in Tex MACs media TexMACS Medium (Miltenyi Biotec, Germany) supplemented with 5% AB serum (Sigma-Aldrich, Saint Louis, Missouri, USA) plus 50 ng/ml of IL15 o/n and for 72 hours. After that time the cells were harvested and the phenotypic assay was performed. The same culture without IL15 was run in parallel as a control.
Cell surface staining was performed for 20 minutes at 4 degrees with the following fluorochrome conjugated antibodies titrated to their optimal concentrations: 7AAD (BD Horizon), CD45RA FITC (BD Pharmingen), CD3 viogreen (Miltenyi Biotec), CD4 PECy7 (BD Pharmingen), CD8 APC Cy7 (BD Pharmingen), CD27 APC (BD Pharmingen). For the Treg panel CD25 BV421 (BD Horizon), and CD127 PE-CF594 (BD Horizon), was used. For the activation panel HLA-DR BV 421 (BD Pharmingen), CD69 BV421 (Biolegend), CD25 BV421 (BD Horizon), was used. For the exhaustion panel PD1 AF700 (Biolegend), NKG2D BV421 (Biolegend) was used. For the cytokine panel CD103 BV421 (BD Horizon) and CCR7 PE-CF594 (BD Horizon) was used. An average of 200.000 cells was acquired. Cell acquisition was performed using a FACS Canto. The analysis was performed using FlowJo 9.9.6 (FlowJo LLC).

[3] = IL-15 o/n vs control with no cytokine
[4] = IL15 (3 days) 50 ng/ml vs no cytokine
[5] = IL15 (3 days) 50 ng/ml vs no cytokine, listed as IL-15
[6] = IL15 (o.n.) 50 ng/ml vs no cytokine

IL15: cytokine fundamental for memory T cells that induces the activation, the proliferation and the survival of T cells
Fold increase of activation marker HLA-DR, CD45RA− CD3+ cells (CD45RA− memory T cells [1]; IL-15 72 hours vs control with no cytokine): 1.21 fold | Fold time change of exhaustion marker NKG2A, CD45RA−CD3+ cells (CD45RA− memory T cells [1]; IL-15 o/n): 0.61 fold | Fold time change of exhaustion marker PD-1, CD45RA−CD3+ cells (CD45RA− memory T cells [1]; IL-15 o/n): 1.43 fold | Fold increase of activation marker CD25, CD45RA− CD3+ cells (CD45RA− memory T cells [1]; [3]): 2.28 fold | Fold increase of activation marker CD69, CD45RA− CD3+ cells (CD45RA− memory T cells [1]; [3]): 3.82 fold | Fold increase of activation marker HLA-DR, CD45RA− CD3+ cells (CD45RA− memory T cells [1]; [3]): 1.11 fold | Fold change increase, % CD45RA− (CD45RA− memory T cells [2]; [4]): 1.0 fold | Fold change increase, CD3+ CCR7 (CD45RA− memory T cells [2]; [4]): 1 fold and 1.0 fold | Fold change increase, CD3+ CD25+ (CD45RA− memory T cells [2]; [4]): 8.5 fold | Fold change increase, CD3+ CD69 BV421 high (CD45RA− memory T cells [2]; [4]): 29.6 fold | Fold change increase, CD3+ CD103 (CD45RA− memory T cells [2]; [4]): 1.2 fold | Fold change increase, CD3+ HLA-DR+ (CD45RA− memory T cells [2]; [4]): 2.6 fold | Fold change increase, CD3+ NKG2A+ (CD45RA− memory T cells [2]; [4]): 1.4 fold | Fold change increase, CD3+ PD1 AF700 (CD45RA− memory T cells [2]; [4]): 8.7 fold | Fold change increase, CD4+ CCR7 (CD45RA− memory T cells [2]; [4]): 1.0 fold | Fold change increase, CD4+ CD25+ (CD45RA− memory T cells [2]; [4]): 8.6 fold | Fold change increase, CD4+ CD69 BV421 high (CD45RA− memory T cells [2]; [4]): 59.8 fold | Fold change increase, CD4+ CD103 (CD45RA− memory T cells [2]; [4]): 1.0 fold | Fold change increase, CD4+ HLA-DR+ (CD45RA− memory T cells [2]; [4]): 2.4 fold | Fold change increase, CD4+ NKG2A+ (CD45RA− memory T cells [2]; [4]): 0.6 fold | Fold change increase, CD4+ PD1 AF700 (CD45RA− memory T cells [2]; [4]): 9.1 fold | Fold change increase, CD8+ CCR7 (CD45RA− memory T cells [2]; [4]): 1.4 fold | Fold change increase, CD8+ CD25+ (CD45RA− memory T cells [2]; [4]): 36.4 fold | Fold change increase, CD8+ CD69 BV421 high (CD45RA− memory T cells [2]; [4]): 5.6 fold | Fold change increase, CD8+ CD103 (CD45RA− memory T cells [2]; [4]): 1.4 fold | Fold change increase, CD8+ HLA-DR+ (CD45RA− memory T cells [2]; [4]): 1.9 fold | Fold change increase, CD8+ NKG2A+ (CD45RA− memory T cells [2]; [4]): 1.2 fold | Fold change increase, CD8+ PD1 AF700 (CD45RA− memory T cells [2]; [4]): 6.1 fold | Fold change increase, CD45RA− % CD3+ (CD45RA− memory T cells [2]; [4]): 1.0 fold | Fold change increase, CD45RA− % CD4+ (CD45RA− memory T cells [2]; [4]): 1.0 fold | Fold change increase, CD45RA− % CD8+ (CD45RA− memory T cells [2]; [4]): 1.1 fold | Fold change increase, CD45RA− CD4+ CD27+ (CM) (CD45RA− memory T cells [2]; [4]): 1.0 fold | Fold change increase, CD45RA− CD4+ CD27− (EM) (CD45RA− memory T cells [2]; [4]): 0.9 fold | Fold change increase, CD45RA− CD4+ CD127lowCD25+ (Treg) (CD45RA− memory T cells [2]; [4]): 2.0 fold | Fold change increase, CD45RA− CD8+ CD27+ (CM) (CD45RA− memory T cells [2]; [4]): 1.0 fold | Fold change increase, CD45RA− CD8+ CD27− (EM) (CD45RA− memory T cells [2]; [4]): 1.0 fold | Fold change increase, CD3+ CCR7 (CD45RA− memory T cells [2]; [5]): No modification | Fold change increase, CD3+ CD25+ (CD45RA− memory T cells [2]; [5]): 8.6 fold | Fold change increase, % CD45RA− (CD45RA− memory T cells [2]; [6]): 1.0 fold | Fold change increase, CD3+ CCR7 (CD45RA− memory T cells [2]; [6]): 1.0 fold | Fold change increase, CD3+ CD25+ (CD45RA− memory T cells [2]; [6]): 1.5 fold | Fold change increase, CD3+ CD69 BV421 high (CD45RA− memory T cells [2]; [6]): 3.2 fold | Fold change increase, CD3+ CD103 (CD45RA− memory T cells [2]; [6]): 0.7 fold | Fold change increase, CD3+ HLA-DR+ (CD45RA− memory T cells [2]; [6]): 1.2 fold | Fold change increase, CD3+ NKG2A+ (CD45RA− memory T cells [2]; [6]): 0.7 fold | Fold change increase, CD3+ PD1 AF700 (CD45RA− memory T cells [2]; [6]): 0.7 fold | Fold change increase, CD4+ CCR7 (CD45RA− memory T cells [2]; [6]): 1.0 fold | Fold change increase, CD4+ CD25+ (CD45RA− memory T cells [2]; [6]): 1.5 fold | Fold change increase, CD4+ CD69 BV421 high (CD45RA− memory T cells [2]; [6]): 2.9 fold | Fold change increase, CD4+ CD103 (CD45RA− memory T cells [2]; [6]): 0.7 fold | Fold change increase, CD4+ HLA-DR+ (CD45RA− memory T cells [2]; [6]): 1.2 fold | Fold change increase, CD4+ NKG2A+ (CD45RA− memory T cells [2]; [6]): 1.2 fold | Fold change increase, CD4+ PD1 AF700 (CD45RA− memory T cells [2]; [6]): 0.8 fold | Fold change increase, CD8+ CCR7 (CD45RA− memory T cells [2]; [6]): 1.5 fold | Fold change increase, CD8+ CD25+ (CD45RA− memory T cells [2]; [6]): 4.4 fold | Fold change increase, CD8+ CD69 BV421 high (CD45RA− memory T cells [2]; [6]): 2.8 fold | Fold change increase, CD8+ CD103 (CD45RA− memory T cells [2]; [6]): 0.9 fold | Fold change increase, CD8+ HLA-DR+ (CD45RA− memory T cells [2]; [6]): 1.2 fold | Fold change increase, CD8+ NKG2A+ (CD45RA− memory T cells [2]; [6]): 0.8 fold | Fold change increase, CD8+ PD1 AF700 (CD45RA− memory T cells [2]; [6]): 1.7 fold | Fold change increase, CD45RA− % CD3+ (CD45RA− memory T cells [2]; [6]): 1.0 fold | Fold change increase, CD45RA− % CD4+ (CD45RA− memory T cells [2]; [6]): 1.0 fold | Fold change increase, CD45RA− % CD8+ (CD45RA− memory T cells [2]; [6]): 0.8 fold | Fold change increase, CD45RA− CD4+ CD27+ (CM) (CD45RA− memory T cells [2]; [6]): 1.0 fold | Fold change increase, CD45RA− CD4+ CD27− (EM) (CD45RA− memory T cells [2]; [6]): 0.9 fold | Fold change increase, CD45RA− CD4+ CD127lowCD25+ (Treg) (CD45RA− memory T cells [2]; [6]): 1.3 fold | Fold change increase, CD45RA− CD8+ CD27+ (CM) (CD45RA− memory T cells [2]; [6]): 1.1 fold | Fold change increase, CD45RA− CD8+ CD27− (EM) (CD45RA− memory T cells [2]; [6]): 0.9 fold | Fold change increase, CD3+ CCR7 (CD45RA− memory T cells [2]; IL15 (o.n.) 50 ng/ml vs no cytokine, listed as IL-15): No modification
